Measured values as given in US10927125B2, “Substituted cinnolines as inhibitors of KRAS G12C” (Araxes Pharma LLC, priority 2013, dated 2021).

These compounds were tested against T1, KRAS G12C 1-169, his-tagged protein, GDP-loaded (Homo sapiens, UniProt P01116, G12C) (assay: Biochemical assay: covalent binding of compounds to KRAS G12C, analysed by mass spectrometry). Details: binding measured at 30 min (compounds 247-375).
T1 construct: KRAS G12C 1-169, his-tagged protein, GDP-loaded
Method: Compounds were tested for activity as follows:
Compounds were diluted to 50× final test concentration in DMSO in 96-well storage plates. […] Reactions were mixed carefully and thoroughly by pipetting up/down with a 200 μl multi-channel pipettor. The plate was sealed well with aluminum plate seal, and stored in drawer at room temperature for 30 min, 2 hour or 24 hrs. 51 μl of 2% formic acid (Fisher cat # A117) in DI H2O was then added to each well followed by mixing with a pipette. The plate was then resealed with aluminum seal and stored on dry ice until analyzed as described below.
The above described assays were analyzed by mass spectrometry according to the following procedure:
The MS instrument is set to positive polarity, 2 GHz resolution, and low mass (1700) mode and allowed to equilibrate for 30 minutes. The instrument is then calibrated, switched to acquisition mode and the appropriate method loaded.
After another 30 minute equilibration time, a blank batch (i.e., buffer) is run to ensure equipment is operating properly. The samples are thawed at 37° C. for 10 minutes, briefly centrifuged, and transfer to the bench top. Wells A1 and H12 are spiked with 1 uL 500 uM internal standard peptide, and the plates centrifuged at 2000×g for 5 minutes. The method is then run and masses of each individual well recorded.
The masses (for which integration data is desired) for each well are pasted into the platemap and exported from the analysis. Masses for the internal standards are exported as well. The data at 50 ppm is extracted for the +19 charge state, and identity of well A1 is assigned using the internal standard spike and integrated. Peak data is exported as a TOF list and the above steps are repeated individually, for the +20, 21, 22, 23, 24, and 25 charge states.

T1 sequence (P01116 1-169 isoform P01116-2 G12C): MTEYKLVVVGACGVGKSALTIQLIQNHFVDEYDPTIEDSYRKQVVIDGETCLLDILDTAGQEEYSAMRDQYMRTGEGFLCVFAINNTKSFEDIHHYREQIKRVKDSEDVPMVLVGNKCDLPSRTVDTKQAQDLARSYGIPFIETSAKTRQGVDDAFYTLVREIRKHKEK

| Structure (SMILES) | Binding % |
| --- | --- |
| C=CC(=O)N1CCN(c2cnnc3cc(-c4c(C)ccc5[nH]ncc45)c(C(F)(F)F)cc23)CC1 [Compound 350, 1-(4-(7-(5-methyl-1H-indazol-4-yl)-6-(trifluoromethyl)cinnolin-4-yl)piperazin-1-yl)prop-2-en-1-one] | ++++ (++++ indicates binding activity greater than 75%) |
| C=CC(=O)N1CCN(c2cnnc3cc(-c4cc(O)cc5ccccc45)c(C(F)(F)F)cc23)CC1 [Compound 351, 1-(4-(7-(3-hydroxynaphthalen-1-yl)-6-(trifluoromethyl)cinnolin-4-yl)piperazin-1-yl)prop-2-en-1-one] | ++++ (++++ indicates binding activity greater than 75%) |
| C=CC(=O)N1CCN(c2nc(NCCc3nccn3C)nc3c(F)c(-c4c(C)ccc5[nH]ncc45)c(Cl)cc23)CC1 [Compound 352, 1-(4-(6-chloro-8-fluoro-2-(2-(1-methyl-1H-imidazol-2-yl)ethylamino)-7-(5-methyl-1H-indazol-4-yl)quinazolin-4-yl)piperazin-1-yl)prop-2-en-1-one] | ++++ (++++ indicates binding activity greater than 75%) |
| C=CC(=O)N1CCN(c2ncnc3c(F)c(-c4c(O)cccc4F)c(Cl)cc23)CC1 [Compound 353, (S)-1-(4-(6-chloro-8-fluoro-7-(2-fluoro-6-hydroxyphenyl)quinazolin-4-yl)piperazin-1-yl)prop-2-en-1-one] | ++++ (++++ indicates binding activity greater than 75%) |
| C=CC(=O)N1CCN(c2nc(NC3CCN(CC(F)(F)F)C3)nc3c(F)c(-c4c(C)ccc5[nH]ncc45)c(Cl)cc23)CC1 (centres unmarked) [Compound 354, 1-(4-(6-chloro-8-fluoro-7-(5-methyl-1H-indazol-4-yl)-2-(1-(2,2,2-trifluoroethyl)pyrrolidin-3-ylamino)quinazolin-4-yl)piperazin-1-yl)prop-2-en-1-one] | ++++ (++++ indicates binding activity greater than 75%) |
| C=CC(=O)N1CCN(c2nc(NCCN(C)C)nc3c(F)c(-c4cc(O)cc5ccccc45)c(Cl)cc23)CC1 [Compound 355, 1-(4-(6-chloro-2-(2-(dimethylamino)ethylamino)-8-fluoro-7-(3-hydroxynaphthalen-1-yl)quinazolin-4-yl)piperazin-1-yl)prop-2-en-1-one] | ++++ (++++ indicates binding activity greater than 75%) |
| C=CC(=O)N1CCN(c2nc(NCC(F)(F)F)nc3c(F)c(-c4c(C)ccc5[nH]ncc45)c(Cl)cc23)CC1 [Compound 356, 1-(4-(6-chloro-8-fluoro-7-(5-methyl-1H-indazol-4-yl)-2-(2,2,2-trifluoroethylamino)quinazolin-4-yl)piperazin-1-yl)prop-2-en-1-one] | +++ (+++ indicates binding activity greater than 50% and up to 75%) |
| C=CC(=O)N1CCN(c2nc(OCCCN3CCOCC3)nc3c(F)c(-c4c(C)ccc5[nH]ncc45)c(Cl)cc23)CC1 [Compound 357, 1-(4-(6-chloro-8-fluoro-7-(5-methyl-1H-indazol-4-yl)-2-(3-morpholinopropoxy)quinazolin-4-yl)piperazin-1-yl)prop-2-en-1-one] | ++++ (++++ indicates binding activity greater than 75%) |
| C=CC(=O)N1CCN(c2nc(OCCN3CCCC3)nc3c(F)c(-c4c(C)ccc5[nH]ncc45)c(Cl)cc23)CC1 [Compound 358, 1-(4-(6-chloro-8-fluoro-7-(5-methyl-1H-indazol-4-yl)-2-(2-(pyrrolidin-1-yl)ethoxy)quinazolin-4-yl)piperazin-1-yl)prop-2-en-1-one] | ++++ (++++ indicates binding activity greater than 75%) |
| C=CC(=O)N1CCN(c2ncnc3c(F)c(-c4c(F)ccc5c(C)n[nH]c45)c(Cl)cc23)CC1 [Compound 359, 1-(4-(6-chloro-8-fluoro-7-(6-fluoro-3-methyl-1H-indazol-7-yl)quinazolin-4-yl)piperazin-1-yl)prop-2-en-1-one] | ++++ (++++ indicates binding activity greater than 75%) |
| C=CC(=O)N1CCN(c2nc(NC3CCN(C)C3)nc3c(F)c(-c4cc(O)cc5ccccc45)c(Cl)cc23)CC1 (centres unmarked) [Compound 360, 1-(4-(6-chloro-8-fluoro-7-(3-hydroxynaphthalen-1-yl)-2-(1-methylpyrrolidin-3-ylamino)quinazolin-4-yl)piperazin-1-yl)prop-2-en-1-one] | ++++ (++++ indicates binding activity greater than 75%) |
| C=CC(=O)N1CCN(c2nc(N(C)CCN(C)C)nc3c(F)c(-c4cc(O)cc5ccccc45)c(Cl)cc23)CC1 [Compound 361, 1-(4-(6-chloro-2-((2-(dimethylamino)ethyl)(meth-yl)amino)-8-fluoro-7-(3-hydroxynaphthalen-1-yl)quinazolin-4-yl)piperazin-1-yl)prop-2-en-1-one] | ++++ (++++ indicates binding activity greater than 75%) |
| C=CC(=O)N1CCN(c2ncnc3c(F)c(-c4c(F)cccc4CN(C)C)c(Cl)cc23)CC1 [Compound 362, 1-(4-(6-chloro-7-(2-((dimethylamino)methyl)-6-fluorophenyl)-8-fluoroquinazolin-4-yl)piperazin-1-yl)prop-2-en-1-one] | ++ (++ indicates binding activity greater than 25% and up to 50%) |
| C=CC(=O)N1CCN(c2nc(NC3CCN(C)CC3)nc3c(F)c(-c4c(C)ccc5[nH]ncc45)c(Cl)cc23)CC1 [Compound 363, 1-(4-(6-chloro-8-fluoro-7-(5-methyl-1H-indazol-4-yl)-2-(1-methylpiperidin-4-ylamino)quinazolin-4-yl)piperazin-1-yl)prop-2-en-1-one] | ++++ (++++ indicates binding activity greater than 75%) |
| C=CC(=O)N1CCN(c2nc(NC3CCOCC3)nc3c(F)c(-c4c(C)ccc5[nH]ncc45)c(Cl)cc23)CC1 [Compound 365, 1-(4-(6-chloro-8-fluoro-7-(5-methyl-1H-indazol-4-yl)-2-(tetrahydro-2H-pyran-4-ylamino)quinazolin-4-yl)piperazin-1-yl)prop-2-en-1-one] | ++++ (++++ indicates binding activity greater than 75%) |
| C=CC(=O)N1CCN(c2nc(OCCNC(C)=O)nc3c(F)c(-c4c(C)ccc5[nH]ncc45)c(Cl)cc23)CC1 [Compound 366, N-(2-(4-(4-acryloylpiperazin-1-yl)-6-chloro-8-fluoro-7-(5-methyl-1H-indazol-4-yl)quinazolin-2-yloxy)ethyl)acetamide] | ++++ (++++ indicates binding activity greater than 75%) |
| C=CC(=O)N1CCN(c2nc(OCCN(C)C)nc3c(F)c(-c4c(C)ccc5[nH]ncc45)c(Cl)cc23)CC1C (centres unmarked) [Compound 367, 1-(4-(6-chloro-2-(2-(dimethylamino)ethoxy)-8-fluoro-7-(5-methyl-1H-indazol-4-yl)quinazolin-4-yl)-2-methylpiperazin-1-yl)prop-2-en-1-one] | ++++ (++++ indicates binding activity greater than 75%) |
| C=CC(=O)N1CCN(c2ncnc3c(F)c(-c4c(F)ccc5cn[nH]c45)c(Cl)cc23)CC1 [Compound 368, 1-(4-(6-chloro-8-fluoro-7-(6-fluoro-1H-indazol-7-yl)quinazolin-4-yl)piperazin-1-yl)prop-2-en-1-one] | ++++ (++++ indicates binding activity greater than 75%) |
| C=CC(=O)N1CCN(c2nc(OCCc3nccn3C)nc3c(F)c(-c4c(C)ccc5[nH]ncc45)c(Cl)cc23)CC1 [Compound 369, 1-(4-(6-chloro-8-fluoro-2-(2-(1-methyl-1H-imidazol-2-yl)ethoxy)-7-(5-methyl-1H-indazol-4-yl)quinazolin-4-yl)piperazin-1-yl)prop-2-en-1-one] | ++++ (++++ indicates binding activity greater than 75%) |
| C=CC(=O)N1CCN(c2ncnc3c(F)c(-c4c(O)cccc4F)c(Cl)cc23)CC1 [Compound 370, (R)-1-(4-(6-chloro-8-fluoro-7-(2-fluoro-6-hydroxyphenyl)quinazolin-4-yl)piperazin-1-yl)prop-2-en-1-one] | + (+ indicates binding activity from 5% to 25%) |
| C=CC(=O)N1CCN(c2nc(N(C)CCN(C)C)nc3c(F)c(-c4c(C)ccc5[nH]ncc45)c(Cl)cc23)CC1 [Compound 371, 1-(4-(6-chloro-2-((2-(dimethylamino)ethyl)(meth-yl)amino)-8-fluoro-7-(5-methyl-1H-indazol-4-yl)quinazolin-4-yl)piperazin-1-yl)prop-2-en-1-one] | ++ (++ indicates binding activity greater than 25% and up to 50%) |
| C=CC(=O)N1CCN(c2nc(NC3CCN(C)C3)nc3c(F)c(-c4c(C)ccc5[nH]ncc45)c(Cl)cc23)CC1 (centres unmarked) [Compound 372, 1-(4-(6-chloro-8-fluoro-7-(5-methyl-1H-indazol-4-yl)-2-(1-methylpyrrolidin-3-ylamino)quinazolin-4-yl)piperazin-1-yl)prop-2-en-1-one] | +++ (+++ indicates binding activity greater than 50% and up to 75%) |
| C=CC(=O)N1CCN(c2nc(OCCN3CCN(C)CC3)nc3c(F)c(-c4c(C)ccc5[nH]ncc45)c(Cl)cc23)CC1 [Compound 373, 1-(4-(6-chloro-8-fluoro-7-(5-methyl-1H-indazol-4-yl)-2-(2-(4-methylpiperazin-1-yl)ethoxy)quinazolin-4-yl)piperazin-1-yl)prop-2-en-1-one] | +++ (+++ indicates binding activity greater than 50% and up to 75%) |
